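These data come from cells grown in 96-well plates and exposed to compound for 48 hours at five concentrations. At the TGI there is no net growth.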
What was measured:
Assay in all cases: NCI anticancer screen, dose series, 48 h
[1] = tested on: 786-0 renal
[2] = tested on: A498 renal
[3] = tested on: A549 NSCLC
[4] = tested on: ACHN renal
[5] = tested on: BT-549 breast
[6] = tested on: CAKI-1 renal
[7] = tested on: CCRF-CEM leukemia
[8] = tested on: COLO 205 colon
[9] = tested on: DU-145 prostate
[10] = tested on: EKVX NSCLC
[11] = tested on: HCC-2998 colon
[12] = tested on: HCT-116 colon
[13] = tested on: HCT-15 colon
[14] = tested on: HL-60(TB) leukemia
[15] = tested on: HOP-62 NSCLC
[16] = tested on: HOP-92 NSCLC
[17] = tested on: HS 578T breast
[18] = tested on: HT29 colon
[19] = tested on: IGROV1 ovarian
[20] = tested on: K-562 leukemia
[21] = tested on: KM12 colon
[22] = tested on: LOX IMVI melanoma
[23] = tested on: M14 melanoma
[24] = tested on: MALME-3M melanoma
[25] = tested on: MCF7 breast
[26] = tested on: MDA-MB-231 breast
[27] = tested on: MDA-MB-435
[28] = tested on: MDA-N
[29] = tested on: MOLT-4 leukemia
[30] = tested on: NCI-H226 lung
[31] = tested on: NCI-H23 lung
[32] = tested on: NCI-H460 lung
[33] = tested on: NCI-H522 lung
[34] = tested on: NCI/ADR-RES ovarian
[35] = tested on: OVCAR-3 ovarian
[36] = tested on: OVCAR-4 ovarian
[37] = tested on: OVCAR-5 ovarian
[38] = tested on: OVCAR-8 ovarian
[39] = tested on: PC-3 prostate
[40] = tested on: RPMI-8226 leukemia
[41] = tested on: RXF 393 renal
[42] = tested on: SF-268 CNS
[43] = tested on: SF-295 CNS
[44] = tested on: SF-539 CNS
[45] = tested on: SK-MEL-2 melanoma
[46] = tested on: SK-MEL-28 melanoma
[47] = tested on: SK-MEL-5 melanoma
[48] = tested on: SK-OV-3 ovarian
[49] = tested on: SN12C renal
[50] = tested on: SNB-19 CNS
[51] = tested on: SNB-75 CNS
[52] = tested on: SR leukemia
[53] = tested on: SW-620 colon
[54] = tested on: T-47D breast
[55] = tested on: TK-10 renal
[56] = tested on: U251 CNS
[57] = tested on: UACC-257 melanoma
[58] = tested on: UACC-62 melanoma
[59] = tested on: UO-31 renal

CC(=O)NCCC1CN(C(=O)/C=C/I)c2ccccc21 (configuration not stated)
TGI [1]: 3.11 µM
TGI [2]: 17.5 µM
TGI [3]: 33.1 µM
TGI [4]: 17.8 µM
TGI [5]: 10.8 µM
TGI [6]: 9.03 µM
TGI [7]: > 38.6 µM
TGI [8]: 14.1 µM
TGI [9]: 29.2 µM
TGI [10]: 33.3 µM
TGI [11]: 29.6 µM
TGI [12]: 14.3 µM
TGI [13]: 9.66 µM
TGI [14]: > 100 µM
TGI [15]: 27.7 µM
TGI [16]: 4.43 µM
TGI [17]: 37 µM
TGI [18]: 12.9 µM
TGI [19]: 18.7 µM
TGI [20]: > 100 µM
TGI [21]: 2.67 µM
TGI [22]: 3.25 µM
TGI [23]: 8.5 µM
TGI [24]: 26.3 µM
TGI [25]: 2.87 µM
TGI [26]: 5.15 µM
TGI [27]: 18.5 µM
TGI [28]: 9.26 µM
TGI [29]: > 64.6 µM
TGI [30]: 29.2 µM
TGI [31]: 25.6 µM
TGI [32]: 16.9 µM
TGI [33]: 2.83 µM
TGI [34]: 33.3 µM
TGI [35]: 12.6 µM
TGI [36]: 4.45 µM
TGI [37]: 29.3 µM
TGI [38]: 25.4 µM
TGI [39]: 21.1 µM
TGI [40]: > 60.5 µM
TGI [41]: 10.8 µM
TGI [42]: 23.5 µM
TGI [43]: 28.9 µM
TGI [44]: 21.1 µM
TGI [45]: 14.8 µM
TGI [46]: 18.2 µM
TGI [47]: 20.3 µM
TGI [48]: 27.8 µM
TGI [49]: 13.3 µM
TGI [50]: 27.9 µM
TGI [51]: 30.7 µM
TGI [52]: > 27.4 µM
TGI [53]: 4.53 µM
TGI [54]: 4.46 µM
TGI [55]: 3.63 µM
TGI [56]: 24.2 µM
TGI [57]: 20.4 µM
TGI [58]: 9.89 µM
TGI [59]: 6.85 µM

CC1C(=O)N(c2ccccc2)NC12CCCc1ccccc12 (configuration not stated)
TGI [2]: > 100 µM
TGI [3]: > 100 µM
TGI [4]: > 100 µM
TGI [5]: > 100 µM
TGI [6]: > 100 µM
TGI [7]: > 100 µM
TGI [8]: > 100 µM
TGI [9]: > 100 µM
TGI [10]: > 100 µM
TGI [11]: > 100 µM
TGI [12]: > 100 µM
TGI [13]: > 100 µM
TGI [14]: > 100 µM
TGI [15]: > 100 µM
TGI [16]: > 100 µM
TGI [17]: > 100 µM
TGI [18]: > 100 µM
TGI [19]: > 100 µM
TGI [20]: > 100 µM
TGI [21]: > 100 µM
TGI [22]: > 100 µM
TGI [23]: > 100 µM
TGI [24]: > 100 µM
TGI [25]: > 100 µM
TGI [26]: > 100 µM
TGI [27]: > 100 µM
TGI [28]: > 100 µM
TGI [29]: > 100 µM
TGI [30]: > 100 µM
TGI [31]: > 100 µM
TGI [32]: > 100 µM
TGI [33]: > 100 µM
TGI [34]: > 100 µM
TGI [35]: > 100 µM
TGI [36]: > 100 µM
TGI [37]: > 100 µM
TGI [38]: > 100 µM
TGI [39]: > 100 µM
TGI [40]: > 100 µM
TGI [41]: > 100 µM
TGI [42]: > 100 µM
TGI [43]: > 100 µM
TGI [44]: > 100 µM
TGI [45]: > 100 µM
TGI [46]: > 100 µM
TGI [47]: > 100 µM
TGI [48]: > 100 µM
TGI [49]: > 100 µM
TGI [50]: > 100 µM
TGI [51]: > 100 µM
TGI [52]: > 100 µM
TGI [53]: > 100 µM
TGI [54]: > 100 µM
TGI [55]: > 100 µM
TGI [56]: > 100 µM
TGI [57]: > 100 µM
TGI [58]: > 100 µM
TGI [59]: > 100 µM

Source: PubChem BioAssay (NCI)
